One data set concerns brain homogenates. The data set can be described thus: Iron-induced lipid peroxidation in brain homogenates (MDA). In kind it is biochemical, rat. The method, then:
Lipid peroxidation was induced by incubating a mixture consisting of 0.25 ml homogenate, 0.25 ml ASCF with test compounds, and 10 μM FeCl2 for 1 hr at 35° C. under an atmosphere equilibrated with O2:CO2(95:5). Following the incubation, 0.1 ml of the sample was extracted with trichloroacetic acid and analyzed for thiobarbituric acid reactive material as described previously, using authentic malonyldialdehyde (MDA) as a standard.

For data set [1], the system named is Human dermal fibroblasts (HF cells). Put plainly: Cell protection assay, tert-butylhydroperoxide (t-BHP) toxicity, XTT. To be noted: for Cell viability, absorbance at 490 nm uncorrected for blank: t-BHP 0.5 mM. In kind it is cell-based. The method, then: (§1) Human dermal fibroblasts (HF cells) were obtained from the American type tissue Culture Collection at passage 1 and cultured and propagated in a medium (HF medium) consisting of Dulbecco's Modified Eagle's Medium with 4.5 g/l D-glucose, 10% calf serum 4 mM glutamine, 50 units/ml penicillin, and 50 μg/ml streptomycin in a 37° C. humidified incubator equilibrated with 5% CO2. Cells were used at passages 5 or 6 for experiments. For cell protection assays, HF cells were seeded at a density of about 15,000 cells per cm2 onto 96-well culture plates and allowed to grow to confluence. To assess protection tert-butylhydroperoxide (t-BHP) toxicity, confluent cell layers were first treated with the indicated concentrations of test compounds dissolved in HF medium for 18 hr. The medium was then replaced with fresh medium containing test compounds and 0.5 mM tert-butylhydroperoxide (t-BHP) and cells were incubated for another 18 hr. The medium was then removed and replaced with fresh HF medium (100 μl per well) without test compounds or t-BHP. Fifty μl of XTT reagent (Boeringer Mannheim, Inc.), prepared as described by the manufacturer, was then added to each well and the plates returned to the incubator. After 2 hr., the absorbance at 490 nm was measured in a BioRad (Richmond, Calif.) Model 3550 plate-reader, using a reference wavelength of 655 nm. Control cells that had not been exposed to test compounds or toxic agents were included among the samples treated with XTT reagent. Absorbance measurements for blank wells, containing HF medium and XTT reagent but no cells, were also determined. To analyze protection from glucose/glucose oxidase toxicity, confluent cell layers were incubated with HF medium containing glucose oxidase (0.019 units/ml) along with test compounds, as indicated, for 18 hr in the tissue culture incubator. Fresh HF medium was then added and cell viability assessed using the XTT reagent as described above. For both these models, concentrations of toxic agents were selected that were reproducibly completely lethal. Cytotoxicity assessments were routinely confirmed by visual inspection of the cell layers prior to addition of the XTT reagent.
A general note: Tetrazolium dyes change colour on reduction, which living cells bring about.

Data set [2] has the same test system. The data set can be described thus: Cell protection assay, glucose/glucose oxidase toxicity, XTT. It counts as cell-based. The method, then:
as §1
(§2) Catalase and peroxidase activities were assayed as described in Example 2. Catalase assays contained 10 μM salen-manganese complex and 10 mM hydrogen peroxide. Peroxidase assays contained 10 μM salen-manganese complex and 0.2 mM hydrogen peroxide. Glucose-glucose oxidase toxicity assays were performed using human dermal fibroblasts as described in Example 2.

Data set [3] can be described thus: Catalase activity, conversion of H2O2 to oxygen, polarographic oxygen electrode (Example 2). In kind it is biochemical. The method, then:
Catalase activity was assayed by monitoring the conversion of H2O2 to oxygen using a Clark-type polarographic oxygen electrode. The apparatus consisted of a Mini Clark Style electrode, a 600 μl Oxygen Uptake Chamber, and a Chemical Microsensor system, all obtained from Diamond General Corporation (Ann Arbor, Mich.). The electrode was calibrated by immersion in nitrogen- or air-equilibrated buffers using a Dual Chamber Calibration Cell (Diamond General,. Corp.). Catalase reaction mixtures consisted of 50 mM sodium phosphate, pH 8.1, 0.9% sodium chloride, and salen manganese complex and H2O2 at the indicated concentrations. The temperature of the water-jacketed reaction chamber, as well as the calibration buffers, was maintained at 25±0.1° C. Data were collected at 1 sec intervals and stored-on a MacIntosh II computer using data acquisition hardware and software by Strawberry Tree, Inc. (Sunnyvale, Calif.). Dissolved oxygen concentrations were calculated as described previously (Del Rio et al. (1977) Anal. Biochem. 80: 409) based on a value of 2.5×10^−4 M oxygen for air-saturated buffer at 25° C. Linearity of the dissolved oxygen measurements within the experimental range was continued by determining the amount of oxygen generated from known quantities of H2O2 during exhaustive treatment with bovine liver catalase. Stock solutions of H2O2 were prepared by diluting a commercial 30% H2O2 solution in water and the H2O2 concentrations in these stocks were determined by absorbance at 240 nm, using a molar extinction coefficient of 44 (Stadtman, E R. et al. (1990) Proc. Natl. Acad. Sci. USA 87: 384). […] In the absence of salen manganese complex, H2O2 alone typically produced an early, relatively slow increase in signal. The slope of this increased signal was not proportional to H2O2 concentration (for example in one experiment, 1 and 10 Mm H2O2 yielded apparent rates of 12 and 14 μM oxygen per min, respectively) and may be due to an electrode artifact. […] Where presented, initial rates were calculated by determining the slope of the linear portion of time dependent plots of oxygen generation, usually comprising the first five seconds of the reaction. Unless otherwise indicated, these were corrected by subtracting the rate obtained with H2O2 alone. Where presented, endpoint oxygen generated was calculated from time-dependent plots, such as those shown in FIG. 14, as the difference between the baseline oxygen concentration immediately prior to substrate addition and the maximal oxygen concentration achieved during the course of the reaction. All reactions subjected to these calculations were run for a sufficient time to ensure that oxygen generation had ceased.
as §2

Data set [4] is described as follows: Peroxidase activity, H2O2-dependent oxidation of ABTS (Example 2). In kind it is biochemical. To be noted: for Peroxidase rate: 10 μM salen manganese complex, 0.2 mM H2O2; for Peroxidase: relative to C7 (C7 = 100). The method, then:
Peroxidase activity was assayed by monitoring the hydrogen peroxide-dependent oxidation of 2,2′-azino-bis(3-ethylbenzthiazoline-6) sulfonic acid (ABTS) spectrophotometrically. Standard assay mixtures consisted of 50 mM sodium phosphate, pH 8.1, 0.9% sodium chloride, 0.5 mM ABTS, and H2O2 and salen manganese complex as indicated. Where indicated, 50 mM sodium phosphate buffers of pH 6.0 or pH 7.1 were substituted. Assays were conducted at 27±0.2° C. ABTS oxidation was monitored at 740 or 500 nm to eliminate interference by the salen manganese complexes, many of which absorb in the vicinity of the λmax of oxidized ABTS, and to avoid absorbance values that exceeded the linear range of the spectrophotometer. The amount of oxidized ABTS was estimated using an Δε740 of 20,300 M^−1cm^−1 or an Δε500 of 3400 M^−1cm^−1 calculated based upon the published molar extinction coefficient oat 405 nm (36,800).
as §2

A short description of data set [5]: SOD activity, xanthine/xanthine oxidase with cytochrome C as acceptor (Example 2). In kind it is biochemical. To be noted: for SOD: relative to C7 (C7 = 100). The method, then:
Superoxide dismutase (SOD) activity was assayed by following the inhibition of the reduction of an electron acceptor molecule in the presence of the free-radical generating system xanthine/xanthine oxidase (McCord et al. (1973) Superoxide and Superoxide Dismutase in “Oxidases and Related Redox Systems, vol. I, King et al. eds., University Park press, Baltimore, pp. 51-76). The assay mixture consisted of 50 mM sodium phosphate, pH 7.8, 120 μM xanthine, 0.2 units/ml xanthine oxidase, with acceptor molecule and salen manganese compound, as indicated. Assays were conducted at 27±0.2° C. using a water-jacketed cell holder in a Beckman DU7400 spectrophotometer. In most cases, oxidized cytochrome c, at 0.13 mg/ml, was employed as acceptor and its reduction was monitored spectrophotometrically at 550 nm. In some experiments, nitroblue tetrazolium (NBT), at 80 μM, was substituted for cytochrome c as the acceptor. NBT reduction was also monitored at 550 nm. An estimated extinction coefficient for NBT reduction, 20,800 M^−1cm^−1, determined empirically by exhaustive reduction of NBT in the reaction mixture described above, was employed where indicated. […] Conversion of xanthine to urate was calculated using ε290's of […] for urate and 4050 M^−1cm^−1 for xanthine. […] For each compound, at least four different concentrations were tested in duplicate.

Setting [6] is: 10 μM salen manganese complex, 10 mM H2O2.
Where [7] appears, read: 80 μM, glucose oxidase 0.019 units/ml.
Where [8] appears, read: 29 units/ml bovine liver catalase added, 10 mM H2O2.

As for `CC(=O)[O][Mn]1[O]c2ccccc2C=NCCN=Cc2ccccc2[O]1` [Compound C31], the “MDA levels, percent of control” value worked out at 108% in the data set with brain homogenates (1 μM), 22% with brain homogenates (5 μM), 6% in the data set on brain homogenates (10 μM) and 0% in the data set with brain homogenates (25 μM). Moreover, the “Cell viability, absorbance at 490 nm uncorrected for blank” value is recorded as 0.28 ± 0.01 in data set [1] (2.5 μM); 1.25 ± 0.09 in data set [1] (5 μM); 1.41 ± 0.08 in data set [1] (10 μM); 1.40 ± 0.06 in data set [1] (20 μM); 1.30 ± 0.03 in data set [1] (40 μM); 1.16 ± 0.09 in data set [1] (80 μM). Moreover, the “synergistic toxicity with t-BHP” value in data set [1] (80 μM) was “possible synergistic toxicity”. The “protection against glucose and glucose oxidase (in words)” value in data set [2] is “about equally as effective as C7”. Besides, the Catalase rate in data set [3] (setting [6]) is 131.9 ± 12.9 μM O2/min; in data set [3] (relative to C7 (C7 = 100)) it was 92. In data set [3] (setting [6]), the Endpoint was 29.6 ± 0.5 maximal μM O2. The molecule also gave a Catalase endpt. in data set [3] (relative to C7 (C7 = 100)) of 81. Also, the Peroxidase rate in data set [4] amounted to 21.3 ± 0.5 μM ABTS oxidized/min. For the same molecule, the Peroxidase in data set [4] is on record as 114. Moreover, the SOD in data set [5] was determined as 101.

Consider `COc1ccc2c(c1)C=NCCN=Cc1cc(OC)ccc1[O][Mn]([O]C(C)=O)[O]2` [Compound C38], for which the “protection against glucose and glucose oxidase” value in data set [2] (setting [7]) is on record as “highly protective”. In data set [4], the Peroxidase rate worked out at 19.8 ± 0.4 μM ABTS oxidized/min and the Peroxidase amounted to 129. The SOD in data set [5] was found to be 100.

For the molecule `COc1ccc2c(c1)C=NCCN=Cc1cc(OC)ccc1[O][Mn]([Cl])[O]2` [Compound C41], the “Cell viability, absorbance at 490 nm uncorrected for blank” value is on record as 0.28 ± 0.01 in data set [1] (2.5 μM); 0.28 ± 0.01 in data set [1] (5 μM); 1.37 ± 0.01 in data set [1] (10 μM); 1.44 ± 0.04 in data set [1] (20 μM); 1.35 ± 0.06 in data set [1] (40 μM); 1.07 ± 0.03 in data set [1] (80 μM). The “toxicity of compound alone” value in data set [1] (80 μM, without t-BHP) is on record as “equivalent toxicity with or without t-BHP”. Moreover, the “protection against glucose and glucose oxidase” value in data set [2] (setting [7]) is reported as “highly protective”. Further, in data set [3] (10 μM complex, 10 mM H2O2), the “turnovers before the catalase reaction ceased” value was “about 16 turnovers”. For the same molecule, the Catalase rate in data set [3] (setting [6]) was found to be 172.2 ± 2.2 μM O2/min; in data set [3] (relative to C7 (C7 = 100)), 120. In data set [3] (setting [6]), this molecule had an Endpoint of 83.5 ± 0.9 maximal μM O2. Moreover, the Catalase endpt. in data set [3] (relative to C7 (C7 = 100)) was determined as 311. Further, the Peroxidase rate in data set [4] is 23.4 ± 2.6 μM ABTS oxidized/min. In data set [4], this molecule had a Peroxidase of 136. The same molecule returned an SOD in data set [5] of 114.

With `CC(=O)[O][Mn]1[O]c2ccccc2C(C)=NCCN=C(C)c2ccccc2[O]1` [Compound C85], in data set [3] (relative to C7 (C7 = 100)), the Catalase endpt. was determined as 19 and the Catalase rate was found to be 31. In data set [4], the Peroxidase is recorded as 0. Besides, the SOD in data set [5] is 38.

B1: bovine liver catalase: bovine liver catalase enzyme used as reference (protein, UniProt P00432 2-527, looked up)
Catalase: ADNRDPASDQMKHWKEQRAAQKPDVLTTGGGNPVGDKLNSLTVGPRGPLLVQDVVFTDEMAHFDRERIPERVVHAKGAGAFGYFEVTHDITRYSKAKVFEHIGKRTPIAVRFSTVAGESGSADTVRDPRGFAVKFYTEDGNWDLVGNNTPIFFIRDALLFPSFIHSQKRNPQTHLKDPDMVWDFWSLRPESLHQVSFLFSDRGIPDGHRHMNGYGSHTFKLVNANGEAVYCKFHYKTDQGIKNLSVEDAARLAHEDPDYGLRDLFNAIATGNYPSWTLYIQVMTFSEAEIFPFNPFDLTKVWPHGDYPLIPVGKLVLNRNPVNYFAEVEQLAFDPSNMPPGIEPSPDKMLQGRLFAYPDTHRHRLGPNYLQIPVNCPYRARVANYQRDGPMCMMDNQGGAPNYYPNSFSAPEHQPSALEHRTHFSGDVQRFNSANDDNVTQVRTFYLKVLNEEQRKRLCENIAGHLKDAQLFIQKKAVKNFSDVHPEYGSRIQALLDKYNEEKPKNAVHTYVQHGSHLSAREKANL
With B1, the “protection against glucose and glucose oxidase” value in data set [2] (290 units/ml) is recorded as “full protection”. Besides, the “protection against glucose and glucose oxidase” value in data set [2] (ten-fold lower dose than 290 units/ml) is listed as “only partially protective”. For the same molecule, in data set [3] (19 units/ml, 2.3 mM H2O2), the “rate of oxygen production” value is approximately 0.33 mM/min. Besides, the “peroxidase activity toward ABTS” value in data set [4] (19 units/ml, pH 6.0, 7.1, 8.1) is recorded as “no peroxidase activity”. In data set [4] (setting [8]), the “reduction of initial rate of ABTS oxidation by C7” value is given as 55% and the “total ABTS oxidized by C7” value turned out to be 18 µM. Moreover, in data set [5] (29 units/ml), the “effect on rate of cytochrome C reduction by xanthine oxidase” value is “did not affect”.
